Experimental data published in patent US11700853B2, “Plant health compositions comprising a water-soluble pesticide and a water-insoluble agrochemical” (priority 2010, dated 2023).
≈ marks a conversion by molar mass, not a printed value.

Legend:
[1] = at 20° C.; cited from earlier work
[2] = Dissolution in surfactants at 20% w/v on heating in a water bath, then cooling to room temperature; conditions: for Dissolution temp.: temperature at which the mixture cleared
[3] = Dissolution/melting temperature in surfactants by differential scanning calorimetry (DSC); conditions: for effect of surfactants on dissolution/melting temperature: cationic, nonionic and anionic surfactants tested, compared to absence of a surfactant
[4] = 20% w/v in AGM-550, cooled to 20-25° C. after 45 ° C.
[5] = 20% w/v in Ethomeen T/15, cooled to 20-25° C. after 50 ° C.
[6] = 20% w/v in Ethomeen T/15 at 45 ° C.
[7] = 20% w/v in Ethomeen T/15 at 50 ° C.
[8] = 20% w/v in coco quaternary amine 2 EO (Ethoquad C/12)
[9] = 20% w/v in cocoamine 2EO (Ethomeen C/12)

For `CCOC(=O)[C@@H](C)Oc1ccc(Oc2nc3ccc(Cl)cc3o2)cc1` [fenoxaprop-P-ethyl], which “water solubility (Solub.)” value [1] is on record?
Its value is 0.7 µg/mL (≈ 1.93 µM).

With `CC(C)(C)C(=O)C(Oc1ccc(Cl)cc1)n1cncn1` (stereo not drawn) [triadimefon] as the molecule, how does the “water solubility (Solub.)” value [1] read?
The value was 64 µg/mL (≈ 218 µM).

Which “water solubility (Solub.)” value [1] does the source give for `CCC(C)c1cc([N+](=O)[O-])cc([N+](=O)[O-])c1OC(=O)OC(C)C` (stereo not drawn) [dinobuton] here?
Its value is 0.1 µg/mL (≈ 0.306 µM).

Which “water solubility (Solub.)” value [1] does the source give for `C=CCNC(=O)c1c([Si](C)(C)C)sc(C)c1C` [silithiofam] here?
Its value is 39.9 µg/mL (≈ 149 µM).

Which “water solubility (Solub.)” value [1] does the source give for butafenamid here?
Its value is 3.3 µg/mL.

For `CCC(Oc1ccc(F)c(C(F)(F)F)c1)C(=O)NCc1ccccc1` (stereo not drawn) [beflubutamid], which “water solubility (Solub.)” value [1] is on record?
The value was 3.3 µg/mL (≈ 9.29 µM).

For `CC(=O)O.CC1CN(C2CCCCCCCCCCC2)CC(C)O1` (stereo not drawn) [dedemorph acetate], which “water solubility (Solub.)” value [1] is on record?
The value was 736 µg/mL.

Which “water solubility (Solub.)” value [1] does the source give for `CO/C=C(/C(=O)OC)c1ccccc1COc1cccc(C(F)(F)F)n1` [picoxystrobin] here?
Its value is 3.1 µg/mL (≈ 8.44 µM).

Which “water solubility (Solub.)” value [1] does the source give for `COP(=O)(OC)O/C(=C\Cl)c1ccc(Cl)cc1Cl` [dimethylvinphos] here?
The value was 0.13 µg/mL (≈ 0.392 µM).

For `CCOC(=O)C1=NN(c2ccc(Cl)cc2Cl)C(C)(C(=O)OCC)C1` (stereo not drawn) [mefenpyr-diethyl], which “water solubility (Solub.)” value [1] is on record?
The value was 20 µg/mL (≈ 53.6 µM).

For anilofos, which “water solubility (Solub.)” value [1] is on record?
Its value is 13.6 µg/mL.

Which “water solubility (Solub.)” value [1] does the source give for `Cc1ccc(N(SC(F)(Cl)Cl)S(=O)(=O)N(C)C)cc1` [tolyfluanid] here?
Its value is 0.9 µg/mL (≈ 2.59 µM).

With `CCCCCOC(=O)COc1cc(N2C(=O)C3=C(CCCC3)C2=O)c(F)cc1Cl` [flumiclorac-pentyl] as the molecule, how does the “water solubility (Solub.)” value [1] read?
Its value is 0.2 µg/mL (≈ 0.472 µM).

For `CC1CN(C2CCCCCCCCCCC2)CC(C)O1` (stereo not drawn) [dodemorph], which “water solubility (Solub.)” value [1] is on record?
The value was less than 100 µg/mL.

With `COP(=S)(OC)Oc1c(Cl)cc(C)cc1Cl` [tolclofos-methyl] as the molecule, how does the “water solubility (Solub.)” value [1] read?
Its value is 1.1 µg/mL (≈ 3.65 µM).

With `CCOP(=S)(OCC)Oc1ccc(=O)n(-c2ccccc2)n1` [pyridaphenthion] as the molecule, how does the “water solubility (Solub.)” value [1] read?
Its value is 55.2 µg/mL (≈ 162 µM).

With `C=CCOC(Cn1ccnc1)c1ccc(Cl)cc1Cl` (stereo not drawn) [imazalil] as the molecule, how does the “water solubility (Solub.)” value [1] read?
The value was 0.1 µg/mL (≈ 0.336 µM).

For `CCOC(=O)C(C)Oc1ccc(Oc2nc3ccc(Cl)cc3o2)cc1` (stereo not drawn) [fenoxaprop-ethyl], which “water solubility (Solub.)” value [1] is on record?
Its value is 0.9 µg/mL (≈ 2.49 µM).

With beta-cypermemethrin as the molecule, how does the “water solubility (Solub.)” value [1] read?
The value was 51.5 µg/mL.

With `CCOC(=O)C(C)Oc1ccc(Oc2ncc(C(F)(F)F)cc2Cl)cc1` (stereo not drawn) [haloxyfop-ethyl] as the molecule, how does the “water solubility (Solub.)” value [1] read?
Its value is 0.6 µg/mL (≈ 1.54 µM).

For `CCOCOc1ccc(C(=O)Nc2cccc(Cl)c2Cl)cc1` [etobenzanid], which “water solubility (Solub.)” value [1] is on record?
Its value is 0.9 µg/mL (≈ 2.65 µM).

For `CC(C)(C)C(O)(CCc1ccc(Cl)cc1)Cn1cncn1` (stereo not drawn) [tebuconazole], which “Observation at room temp.” value [2, 4] is on record?
The value was “Dissolved”.

And the Dissolution temp. ([2]; 20% w/v in AGM-550)?
Its Dissolution temp. is 45 °C.

And the Observation ([2]; 20% w/v in AGM-550 at 45 ° C.)?
Its Observation is “Dissolved”.

What about the “Observation at room temp.” value ([2]; 20% w/v in Armeen APA 9, cooled to 20-25° C. after 40 ° C.) of the same molecule?
Its value is “Dissolved”.

What about the Dissolution temp. ([2]; 20% w/v in Armeen APA 9) of the same molecule?
The Dissolution temp. was 40 °C.

And the Observation ([2]; 20% w/v in Armeen APA 9 at 40 ° C.)?
The Observation was “Dissolved”.

And the “Observation at room temp.” value ([2]; 20% w/v in Ethomeen C/12, cooled to 20-25° C. after 45 ° C.)?
The value was “Dissolved”.

And the Observation ([2]; 20% w/v in Ethomeen C/12 at 45 ° C.)?
Its Observation is “Dissolved”.

And the “Observation at room temp.” value [2, 5]?
The value was “Dissolved”.

What about the Dissolution temp. ([2]; 20% w/v in Ethomeen T/15) of the same molecule?
The Dissolution temp. was 50 °C.

What about the Observation [2, 6] of the same molecule?
The Observation was “Not Dissolved”.

What about the Observation [2, 7] of the same molecule?
The Observation was “Dissolved”.

And the “Observation at room temp.” value ([2]; 20% w/v in Ethoquad C/12, cooled to 20-25° C. after 45 ° C.)?
Its value is “Dissolved”.

What about the Observation ([2]; 20% w/v in Ethoquad C/12 at 45 ° C.) of the same molecule?
The Observation was “Dissolved”.

And the “Observation at room temp.” value ([2]; 20% w/v in Surfonic L24-9, cooled to 20-25° C. after 50 ° C.)?
Its value is “Dissolved”.

What about the Dissolution temp. ([2]; 20% w/v in Surfonic L24-9) of the same molecule?
Its Dissolution temp. is 50 °C.

What about the Observation ([2]; 20% w/v in Surfonic L24-9 at 45 ° C.) of the same molecule?
Its Observation is “Not Dissolved”.

What about the Observation ([2]; 20% w/v in Surfonic L24-9 at 50 ° C.) of the same molecule?
Its Observation is “Dissolved”.

What about the Observation ([2]; 20% w/v in alkylamine oxide at 45 ° C.) of the same molecule?
The Observation was “Dissolved”.

And the “Observation at room temp.” value ([2]; 20% w/v in alkylamine oxide, cooled to 20-25° C. after 45 ° C.)?
Its value is “Dissolved”.

What about the Dissolution temp. ([2]; 20% w/v in alkylamine oxide) of the same molecule?
Its Dissolution temp. is 45 °C.

What about the Dissolution temp. [2, 8] of the same molecule?
Its Dissolution temp. is 45 °C.

And the Dissolution temp. [2, 9]?
Its Dissolution temp. is 45 °C.

And the melting/dissolution point ([3]; 40 wt % in ethoxylated cocoamine (2EO) surfactant, FIG. 14)?
The melting/dissolution point was 71 °C.

What about the melting/dissolution point ([3]; 65 wt % in ethoxylated cocoamine (2EO) surfactant, FIG. 14) of the same molecule?
The melting/dissolution point was 91 °C.

And the “dissolution/melting point, rank among surfactants tested” value ([3]; amidopropylamine surfactant)?
Its value is “lowest”.

What about the “effect of surfactants on dissolution/melting temperature” value [3] of the same molecule?
Its value is “reduced”.

With `CC(Oc1ccc(Cl)cc1Cl)C(=O)NC(C)(C#N)C(C)C` (stereo not drawn) [fenoxanil] as the molecule, how does the “water solubility (Solub.)” value [1] read?
The value was 30.7 µg/mL (≈ 93.2 µM).

Which “Observation at room temp.” value [2, 4] does the source give for `CCOC(=O)[C@@H](C)Oc1ccc(Oc2cnc3cc(Cl)ccc3n2)cc1` [quizalofop-P-ethyl] here?
Its value is “Dissolved”.

What about the Dissolution temp. ([2]; 20% w/v in AGM-550) of the same molecule?
The Dissolution temp. was 45 °C.

And the Observation ([2]; 20% w/v in AGM-550 at 45 ° C.)?
The Observation was “Dissolved”.

And the “Observation at room temp.” value ([2]; 20% w/v in Armeen APA 9, cooled to 20-25° C. after 50 ° C.)?
The value was “Dissolved”.

What about the Dissolution temp. ([2]; 20% w/v in Armeen APA 9) of the same molecule?
Its Dissolution temp. is 50 °C.

What about the Observation ([2]; 20% w/v in Armeen APA 9 at 45 ° C.) of the same molecule?
Its Observation is “Not Dissolved”.

What about the Observation ([2]; 20% w/v in Armeen APA 9 at 50 ° C.) of the same molecule?
The Observation was “Dissolved”.

What about the “Observation at room temp.” value ([2]; 20% w/v in Ethomeen C/12, cooled to 20-25° C. after 55 ° C.) of the same molecule?
The value was “Dissolved”.

And the “Observation at room temp.” value ([2]; 20% w/v in Ethomeen C/12, cooled to 20-25° C. after 65 ° C.)?
Its value is “Dissolved”.

What about the Observation ([2]; 20% w/v in Ethomeen C/12 at 50 ° C.) of the same molecule?
The Observation was “Not Dissolved”.

And the Observation ([2]; 20% w/v in Ethomeen C/12 at 55 ° C.)?
Its Observation is “Dissolved”.

And the Observation ([2]; 20% w/v in Ethomeen C/12 at 65 ° C.)?
The Observation was “Dissolved”.

What about the “Observation at room temp.” value [2, 5] of the same molecule?
Its value is “Dissolved”.

And the Dissolution temp. ([2]; 20% w/v in Ethomeen T/15)?
The Dissolution temp. was 50 °C.

What about the Observation [2, 6] of the same molecule?
Its Observation is “Not Dissolved”.

And the Observation [2, 7]?
The Observation was “Dissolved”.

And the “Observation at room temp.” value ([2]; 20% w/v in Ethoquad C/12, cooled to 20-25° C. after 65 ° C.)?
The value was “Dissolved”.

What about the Observation ([2]; 20% w/v in Ethoquad C/12 at 55 ° C.) of the same molecule?
The Observation was “Not Dissolved”.

What about the Observation ([2]; 20% w/v in Ethoquad C/12 at 65 ° C.) of the same molecule?
The Observation was “Dissolved”.

What about the Observation ([2]; 20% w/v in alkylamine oxide at 60 ° C.) of the same molecule?
The Observation was “Dissolved”.

What about the “Observation at room temp.” value ([2]; 20% w/v in alkylamine oxide, cooled to 20-25° C. after 60 ° C.) of the same molecule?
Its value is “Dissolved”.

And the Dissolution temp. ([2]; 20% w/v in alkylamine oxide)?
The Dissolution temp. was 60 °C.

What about the Dissolution temp. [2, 8] of the same molecule?
Its Dissolution temp. is 65 °C.

What about the Dissolution temp. [2, 9] of the same molecule?
Its Dissolution temp. is 55 °C.

And the melting/dissolution point ([3]; 40 wt % in C6-9 amidopropyl dimethylamine surfactant (ARMEEN APA 9), FIG. 16)?
Its melting/dissolution point is 63 °C.

And the melting/dissolution point ([3]; 65 wt % in C6-9 amidopropyl dimethylamine surfactant (ARMEEN APA 9), FIG. 16)?
The melting/dissolution point was 69 °C.

What about the “effect of surfactants on dissolution/melting temperature” value [3] of the same molecule?
The value was “reduced”.

Which “water solubility (Solub.)” value [1] does the source give for `C#CCOc1ccc(CCNC(=O)C(OCC#C)c2ccc(Cl)cc2)cc1OC` (stereo not drawn) [mandipropamid] here?
The value was 4.2 µg/mL (≈ 10.2 µM).

With `CCOC(=O)NCCOc1ccc(Oc2ccccc2)cc1` [fenoxycarb] as the molecule, how does the “water solubility (Solub.)” value [1] read?
The value was 7.9 µg/mL (≈ 26.2 µM).
